Like-named read-outs stand apart in the source and are kept apart here.
What was measured:
[1] = Simulated plasma concentration of BXA (non-parametric superposition, Phoenix WinNonlin); design: species or system ferret; conditions: for terminal elimination half-life extrapolated from mean plasma concentrations between 6 and 24 hours: four ferrets; for Ratio of BXA concentration to EC90: EC90 0.42 ng/mL; for Ratio of BXA concentration to Target concentration: target 6.85 ng/mL
From the text: Plasma concentrations of BXA after dosing of BXM twice daily were estimated using the non‐parametric superposition function in Phoenix WinNonlin software (https://onlinehelp.certara.com/phoenix/8.2/topics/nonparasuper.htm) based on the mean plasma concentrations of BXA following single‐dose administration of BXM. Dosing type was used as “Variable.” The computation method used for interpolation and extrapolation of untransformed data was selected as logarithm (Log).

[2] = tested on: influenza A/Kadoma/3/2006 strain; conditions: A/Kadoma/3/2006, yield reduction assay, cited from earlier work
[3] = design: method as in Koshimichi et al., J Pharm Sci 2019;108:1896–1904; conditions: Japanese patients, ref Koshimichi et al., J Pharm Sci 2019;108:1896–1904, cited from earlier work
[4] = two doses BXM 10 mg/kg, 24 hours after first dosing
[5] = two doses BXM 10 mg/kg, 48 hours after first dosing
[6] = two doses BXM 30 mg/kg, 24 hours after first dosing
[7] = two doses BXM 30 mg/kg, 48 hours after first dosing

## O=C1c2c(O)c(=O)ccn2N([C@@H]2c3ccccc3SCc3c2ccc(F)c3F)[C@@H]2COCCN12 [BXA, baloxavir acid]
[1]; BXM 10 mg/kg
  terminal elimination half-life extrapolated from mean plasma concentrations between 6 and 24 hours: 6.57 h
[1]; BXM 30 mg/kg
  terminal elimination half-life extrapolated from mean plasma concentrations between 6 and 24 hours: 4.08 h
[1]; BXM single dose 10 mg/kg, 2.5 h
  Simulated plasma concentration: 48.5 ng/mL
[1]; BXM single dose 10 mg/kg, 3 h
  Simulated plasma concentration: 42.6 ng/mL
[1]; BXM single dose 10 mg/kg, 3.5 h
  Simulated plasma concentration: 37.5 ng/mL
[1]; BXM single dose 10 mg/kg, 4 h
  Simulated plasma concentration: 33.0 ng/mL
[1]; BXM single dose 10 mg/kg, 4.5 h
  Simulated plasma concentration: 29.1 ng/mL
[1]; BXM single dose 10 mg/kg, 5 h
  Simulated plasma concentration: 25.7 ng/mL
[1]; BXM single dose 10 mg/kg, 5.5 h
  Simulated plasma concentration: 22.7 ng/mL
[1]; BXM single dose 10 mg/kg, 6 h
  Simulated plasma concentration: 20.0 ng/mL
[1]; BXM single dose 10 mg/kg, 6.5 h
  Simulated plasma concentration: 19.1 ng/mL
[1]; BXM single dose 10 mg/kg, 7 h
  Simulated plasma concentration: 18.3 ng/mL
[1]; BXM single dose 10 mg/kg, 7.5 h
  Simulated plasma concentration: 17.5 ng/mL
[1]; BXM single dose 10 mg/kg, 8 h
  Simulated plasma concentration: 16.7 ng/mL
[1]; BXM single dose 10 mg/kg, 8.5 h
  Simulated plasma concentration: 15.8 ng/mL
[1]; BXM single dose 10 mg/kg, 9 h
  Simulated plasma concentration: 15.0 ng/mL
[1]; BXM single dose 10 mg/kg, 9.5 h
  Simulated plasma concentration: 14.2 ng/mL
[1]; BXM single dose 10 mg/kg, 10 h
  Simulated plasma concentration: 13.5 ng/mL
[1]; BXM single dose 10 mg/kg, 10.5 h
  Simulated plasma concentration: 12.8 ng/mL
[1]; BXM single dose 10 mg/kg, 11 h
  Simulated plasma concentration: 12.1 ng/mL
[1]; BXM single dose 10 mg/kg, 11.5 h
  Simulated plasma concentration: 11.5 ng/mL
[1]; BXM single dose 10 mg/kg, 12 h
  Simulated plasma concentration: 10.9 ng/mL
[1]; BXM single dose 10 mg/kg, 12.5 h
  Simulated plasma concentration: 10.3 ng/mL
[1]; BXM single dose 10 mg/kg, 13 h
  Simulated plasma concentration: 9.80 ng/mL
[1]; BXM single dose 10 mg/kg, 13.5 h
  Simulated plasma concentration: 9.29 ng/mL
[1]; BXM single dose 10 mg/kg, 47.5 h
  Simulated plasma concentration: 0.254 ng/mL
[1]; BXM single dose 10 mg/kg, 48 h
  Simulated plasma concentration: 0.241 ng/mL
[1]; BXM single dose 30 mg/kg, 2.5 h
  Simulated plasma concentration: 316 ng/mL
[1]; BXM single dose 30 mg/kg, 3 h
  Simulated plasma concentration: 292 ng/mL
[1]; BXM single dose 30 mg/kg, 3.5 h
  Simulated plasma concentration: 269 ng/mL
[1]; BXM single dose 30 mg/kg, 4 h
  Simulated plasma concentration: 248 ng/mL
[1]; BXM single dose 30 mg/kg, 4.5 h
  Simulated plasma concentration: 235.6 ng/mL
[1]; BXM single dose 30 mg/kg, 5 h
  Simulated plasma concentration: 223.8 ng/mL
[1]; BXM single dose 30 mg/kg, 5.5 h
  Simulated plasma concentration: 212.6 ng/mL
[1]; BXM single dose 30 mg/kg, 6 h
  Simulated plasma concentration: 202 ng/mL
[1]; BXM single dose 30 mg/kg, 6.5 h
  Simulated plasma concentration: 190.3 ng/mL
[1]; BXM single dose 30 mg/kg, 7 h
  Simulated plasma concentration: 179.2 ng/mL
[1]; BXM single dose 30 mg/kg, 7.5 h
  Simulated plasma concentration: 168.8 ng/mL
[1]; BXM single dose 30 mg/kg, 8 h
  Simulated plasma concentration: 159 ng/mL
[1]; BXM single dose 30 mg/kg, 8.5 h
  Simulated plasma concentration: 146 ng/mL
[1]; BXM single dose 30 mg/kg, 9 h
  Simulated plasma concentration: 134 ng/mL
[1]; BXM single dose 30 mg/kg, 9.5 h
  Simulated plasma concentration: 123 ng/mL
[1]; BXM single dose 30 mg/kg, 10 h
  Simulated plasma concentration: 112 ng/mL
[1]; BXM single dose 30 mg/kg, 10.5 h
  Simulated plasma concentration: 103 ng/mL
[1]; BXM single dose 30 mg/kg, 11 h
  Simulated plasma concentration: 94.5 ng/mL
[1]; BXM single dose 30 mg/kg, 11.5 h
  Simulated plasma concentration: 86.6 ng/mL
[1]; BXM single dose 30 mg/kg, 12 h
  Simulated plasma concentration: 79.4 ng/mL
[1]; BXM single dose 30 mg/kg, 12.5 h
  Simulated plasma concentration: 72.8 ng/mL
[1]; BXM single dose 30 mg/kg, 13 h
  Simulated plasma concentration: 66.8 ng/mL
[1]; BXM single dose 30 mg/kg, 13.5 h
  Simulated plasma concentration: 61.2 ng/mL
[1]; BXM single dose 30 mg/kg, 47.5 h
  Simulated plasma concentration: 0.184 ng/mL
[1]; BXM single dose 30 mg/kg, 48 h
  Simulated plasma concentration: 0.169 ng/mL
[1]; BXM two doses 10 mg/kg (0 and 12 h), 2.5 h
  Simulated plasma concentration: 48.5 ng/mL
[1]; BXM two doses 10 mg/kg (0 and 12 h), 3 h
  Simulated plasma concentration: 42.6 ng/mL
[1]; BXM two doses 10 mg/kg (0 and 12 h), 3.5 h
  Simulated plasma concentration: 37.5 ng/mL
[1]; BXM two doses 10 mg/kg (0 and 12 h), 4 h
  Simulated plasma concentration: 33.0 ng/mL
[1]; BXM two doses 10 mg/kg (0 and 12 h), 4.5 h
  Simulated plasma concentration: 29.1 ng/mL
[1]; BXM two doses 10 mg/kg (0 and 12 h), 5 h
  Simulated plasma concentration: 25.7 ng/mL
[1]; BXM two doses 10 mg/kg (0 and 12 h), 5.5 h
  Simulated plasma concentration: 22.7 ng/mL
[1]; BXM two doses 10 mg/kg (0 and 12 h), 6 h
  Simulated plasma concentration: 20.0 ng/mL
[1]; BXM two doses 10 mg/kg (0 and 12 h), 6.5 h
  Simulated plasma concentration: 19.1 ng/mL
[1]; BXM two doses 10 mg/kg (0 and 12 h), 7 h
  Simulated plasma concentration: 18.3 ng/mL
[1]; BXM two doses 10 mg/kg (0 and 12 h), 7.5 h
  Simulated plasma concentration: 17.5 ng/mL
[1]; BXM two doses 10 mg/kg (0 and 12 h), 8 h
  Simulated plasma concentration: 16.7 ng/mL
[1]; BXM two doses 10 mg/kg (0 and 12 h), 8.5 h
  Simulated plasma concentration: 15.8 ng/mL
[1]; BXM two doses 10 mg/kg (0 and 12 h), 9 h
  Simulated plasma concentration: 15.0 ng/mL
[1]; BXM two doses 10 mg/kg (0 and 12 h), 9.5 h
  Simulated plasma concentration: 14.2 ng/mL
[1]; BXM two doses 10 mg/kg (0 and 12 h), 10 h
  Simulated plasma concentration: 13.5 ng/mL
[1]; BXM two doses 10 mg/kg (0 and 12 h), 10.5 h
  Simulated plasma concentration: 12.8 ng/mL
[1]; BXM two doses 10 mg/kg (0 and 12 h), 11 h
  Simulated plasma concentration: 12.1 ng/mL
[1]; BXM two doses 10 mg/kg (0 and 12 h), 11.5 h
  Simulated plasma concentration: 11.5 ng/mL
[1]; BXM two doses 10 mg/kg (0 and 12 h), 12 h (dosing)
  Simulated plasma concentration: 10.9 ng/mL
[1]; BXM two doses 10 mg/kg (0 and 12 h), 12.5 h
  Simulated plasma concentration: 43.5 ng/mL
[1]; BXM two doses 10 mg/kg (0 and 12 h), 13 h
  Simulated plasma concentration: 65.9 ng/mL
[1]; BXM two doses 10 mg/kg (0 and 12 h), 13.5 h
  Simulated plasma concentration: 64.9 ng/mL
[1]; BXM two doses 10 mg/kg (0 and 12 h), 24 h
  Simulated plasma concentration: 13.9 ng/mL
[1]; BXM two doses 10 mg/kg (0 and 12 h), 47.5 h
  Simulated plasma concentration: 1.16 ng/mL
[1]; BXM two doses 10 mg/kg (0 and 12 h), 48 h
  Simulated plasma concentration: 1.10 ng/mL
[1]; BXM two doses 30 mg/kg (0 and 12 h), 2.5 h
  Simulated plasma concentration: 316 ng/mL
[1]; BXM two doses 30 mg/kg (0 and 12 h), 3 h
  Simulated plasma concentration: 292 ng/mL
[1]; BXM two doses 30 mg/kg (0 and 12 h), 3.5 h
  Simulated plasma concentration: 269 ng/mL
[1]; BXM two doses 30 mg/kg (0 and 12 h), 4 h
  Simulated plasma concentration: 248 ng/mL
[1]; BXM two doses 30 mg/kg (0 and 12 h), 4.5 h
  Simulated plasma concentration: 236 ng/mL
[1]; BXM two doses 30 mg/kg (0 and 12 h), 5 h
  Simulated plasma concentration: 224 ng/mL
[1]; BXM two doses 30 mg/kg (0 and 12 h), 5.5 h
  Simulated plasma concentration: 213 ng/mL
[1]; BXM two doses 30 mg/kg (0 and 12 h), 6 h
  Simulated plasma concentration: 202 ng/mL
[1]; BXM two doses 30 mg/kg (0 and 12 h), 6.5 h
  Simulated plasma concentration: 190 ng/mL
[1]; BXM two doses 30 mg/kg (0 and 12 h), 7 h
  Simulated plasma concentration: 179 ng/mL
[1]; BXM two doses 30 mg/kg (0 and 12 h), 7.5 h
  Simulated plasma concentration: 169 ng/mL
[1]; BXM two doses 30 mg/kg (0 and 12 h), 8 h
  Simulated plasma concentration: 159 ng/mL
[1]; BXM two doses 30 mg/kg (0 and 12 h), 8.5 h
  Simulated plasma concentration: 146 ng/mL
[1]; BXM two doses 30 mg/kg (0 and 12 h), 9 h
  Simulated plasma concentration: 134 ng/mL
[1]; BXM two doses 30 mg/kg (0 and 12 h), 9.5 h
  Simulated plasma concentration: 123 ng/mL
[1]; BXM two doses 30 mg/kg (0 and 12 h), 10 h
  Simulated plasma concentration: 112 ng/mL
[1]; BXM two doses 30 mg/kg (0 and 12 h), 10.5 h
  Simulated plasma concentration: 103 ng/mL
[1]; BXM two doses 30 mg/kg (0 and 12 h), 11 h
  Simulated plasma concentration: 94.5 ng/mL
[1]; BXM two doses 30 mg/kg (0 and 12 h), 11.5 h
  Simulated plasma concentration: 86.6 ng/mL
[1]; BXM two doses 30 mg/kg (0 and 12 h), 12 h (dosing)
  Simulated plasma concentration: 79.4 ng/mL
[1]; BXM two doses 30 mg/kg (0 and 12 h), 12.5 h
  Simulated plasma concentration: 208 ng/mL
[1]; BXM two doses 30 mg/kg (0 and 12 h), 13 h
  Simulated plasma concentration: 405 ng/mL
[1]; BXM two doses 30 mg/kg (0 and 12 h), 47.5 h
  Simulated plasma concentration: 1.60 ng/mL
[1]; BXM two doses 30 mg/kg (0 and 12 h), 48 h
  Simulated plasma concentration: 1.47 ng/mL
[1]; [4]
  Ratio of BXA concentration to EC90: × 33.2
  Ratio of BXA concentration to Target concentration: × 2.0
[1]; [5]
  Ratio of BXA concentration to EC90: × 2.6
  Ratio of BXA concentration to Target concentration: × 0.16
[1]; [6]
  Ratio of BXA concentration to EC90: × 213
  Ratio of BXA concentration to Target concentration: × 13.0
[1]; [7]
  Ratio of BXA concentration to EC90: × 3.5
  Ratio of BXA concentration to Target concentration: × 0.21
[2]
  90% effective concentration (EC90): 0.42 ng/mL
[2]; read-out: 90% effective concentration (EC90)
  EC90: 0.88 nM
[3]; BXM 10 mg
  plasma concentration at 24 hours: 15.1 (range 6.38‐29.0) ng/mL
[3]; BXM 40 mg
  plasma concentration at 24 hours: 61.5 (range 27.9‐118) ng/mL

— PMC7578299, “The antiviral effects of baloxavir marboxil against influenza A virus infection in ferrets” (Influenza and Other Respiratory Viruses, 2020)
